Values belong to the molecule of their own block, whether it stands above or below them.
Legend:
[1] = molecular target: T1, PSMA (Homo sapiens (Human), UniProt Q04609); assay: Competitive binding assay (IC50) on LNCaP cells with radioligand [125I-BA]KuE; conditions: 1 hour on ice, radioligand [^125I-BA]KuE 0.2 nM, mean ± SD
Description: In the case of the PSMA constructs, the radioiodinated ((S)-1-carboxy-5-(4-(-^125I-iodo-benzamido)pentyl)carbamoyl)-L-glutamic acid ([^125I-BA]KuE) was used as reference radioligand. The assay was performed on LNCaP cells seeded in 24-well plates (1.5×10^5 cells/well). The cells were incubated with increased concentrations of each ^natCu-complexed conjugates (ranging from 0.1 up to 100 nM) in the presence of 0.2 nM [^125I-BA]KuE. After 1 hour incubation on ice, the unbound (free) [^125I-BA]KuE was collected by removing the medium and the cells were detached with NaOH 1 M for counting (bound radioligand). Non-specific binding was defined as the amount of binding activity in the presence of the blocking agent 2-(phosphonomethyl)pentanedioic acid (2-PMPA) in high excess (10 μM).
Quantification of the free and bound radioligand was performed in a gamma-counter. The data were analyzed by GraphPad Prism 9 Software and the IC50 values were determined using the “log(inhibitor) vs response” equation based on the specific binding=total−non-specific binding.
Table 18. IC50 values were determined by competitive assays. […] The results are expressed as means standard deviation (SD) from a minimum of two separate experiments, each in triplicates.

[2] = test system: LNCaP xenografts; assay: PET/CT imaging in LNCaP xenografted mice; assay type: in vivo; conditions: LNCaP-xenografted nude mice
Description: (§1) Tumor xenografted mice were injected intravenously into the tail vein with the tested radiotracer. […] Mice were anesthetized with 1.5% isoflurane and dynamic PET scans were acquired during 1 hour upon injection of the radiotracer. The mice were euthanized by CO2 at 4 hours p.i., the bladder was mechanically emptied, and static PET scans were acquired for 30 min. PET images were acquired using the R-CUBE PET scanner system (MOLECUBES, Gent, Belgium) and they were decay corrected and reconstructed with the VivoQuant software version 4.0. The CT was imaged supine, headfirst, using the NanoSPECT/CT™ scanner (Bioscan Inc.). Topograms and helical CT scans of the whole mouse were first acquired using the following parameters: X-ray tube current: 177 μA, X-ray tube voltage 45 kVp, 90 seconds and 180 frames per rotation, pitch 1. CT images were reconstructed using CTReco (version r1.146), with a standard filtered back projection algorithm (exact cone beam) and post-filtered (RamLak, 100% frequency cut-off), resulting in a pixel size of 0.2 mm. Co-registered PET/CT images were visualized using maximum intensity projection (MIP) with InVivoScope (version 1.43, Bioscan Inc.). The results are presented in the Examples that follow.

[3] = test system: LNCaP cells; assay: In vitro cellular uptake (cell surface and internalized fractions) in LNCaP cells; assay type: cell-based; conditions: for Cell surface fraction / Internalized fraction: specific uptake
Description: The cellular uptake was studied in vitro using intact cells seeded in 6-well plates overnight. On the day of the experiment, the cells were washed and incubated with each of the exemplified [^61Cu]Cu-radiotracer at different time points, either alone or in the presence of a blocking agent to distinguish between specific and non-specific uptake. At each investigated time point, the medium containing the unbound (free) radiotracer was removed, followed by two washing steps with ice-cold phosphate-buffered saline. The cells were then treated 2×5 min with ice-cold glycine solution (0.05 M, pH 2.8) to detach the cell surface-bound radiotracer (acid released). Afterwards, the cells containing the internalized radiotracer were detached with 1 M NaOH at 37° C. and collected for measurement. The amount of specific cell surface-bound and internalized radiotracer is expressed as percentage of the total applied activity, after subtracting the non-specific values.
2-(phosphonomethyl)-pentanedioic acid (2-PMPA, 10 μM) was used to determine non-specific binding (FIG. 14).
Cellular uptake and distribution between cell surface (cell membrane bound) and internalized fractions of ^61Cu-labeled PSMA-I&T constructs versus their ^68Ga counterparts (Table 19). The values are expressed as % of the applied activity and refer to the specific uptake calculated after subtracting the non-specific values (measured in the presence of 10 μM 2-PMPA) from the total values (specific=total−non specific).

[4] = Lipophilicity, log D by shake-flask method (1-octanol/PBS pH 7.4); assay type: physicochemical; conditions: shake-flask, Table 17, mean ± SD
Description: The radiotracer (1 μM) was added to a 50:50 pre-saturated mixture of 1-octanol and phosphate buffered saline (PBSpH 7.4). The solution was vortexed for 30 min and then centrifuged at 3,000 rpm to achieve a phase separation. Aliquots from each phase were collected and measured in a gamma-counter. The distribution coefficient was calculated as the average of the logarithmic values of the ratio between the radioactivity in the organic and the PBS phase.
Table 17. Lipophilicity expressed as the log distribution coefficient D (log D(Octanol/PBS pH7.4)) of ^61Cu-radiotracers versus ^68Ga-radiotracers (reference radiotracers).
In a pre-lubricated Eppendorf tube, a pre-saturated mixture of 500 μL of 1-octanol and 500 μL of PBS pH 7.4 (phosphate-buffered saline) were added. An aliquot of […] in 10 μL of the radioligand was added to this mixture, shaken for 30 min, and then centrifuged at 3000 rcf for 10 min to achieve phase separation. Aliquots of 100 μL were removed from the 1-octanol and from the PBS phases, and the activity was measured in a […]. The partition coefficient was calculated as the average log ratio value of the radioactivity in the organic fraction and PBS fraction.

[5] = test system: LNCaP xenografts; assay: Quantitative biodistribution in LNCaP xenografted mice; assay type: in vivo; conditions: LNCaP xenografts
Description: (§2) The mice were randomly distributed in groups and euthanized at 1 and at 4 hours post-injection. The organs of interest were collected, rinsed, blotted, weighed and counted in a gamma counter. The results are expressed as percentage of injected activity per gram (% IA/g), representing the mean±standard deviation of n=4-8 mice per group and they were obtained by extrapolation from counts of an aliquot taken from the injected solution as standard.
The biodistribution of the [^61Cu]Cu-NODAGA radiotracers was compared with the reference compounds used in patients under identical experimental conditions. The mice were randomly distributed in groups, injected with the radiotracer under investigation and euthanized at 1 and at 4 hours post-injection of the radiotracers under investigation. The organs of interest were collected, rinsed, blotted, weighed and counted in a gamma counter. The results are expressed as percentage of injected activity per gram (% IA/g), representing the mean±standard deviation of all mice per group and they were obtained by extrapolation from counts of an aliquot taken from the injected solution as standard.

[6] = molecular target: T1, PSMA; assay: Specificity study: PET/CT in LNCaP xenografts after blocking with 2-PMPA, and free [61Cu]CuCl2; assay type: in vivo, mice; conditions: PET/CT 1 hour p.i.
Description: The specificity of [^61Cu]Cu-NODAGA-PSMA-I&T and [^61Cu]Cu-DOTAGA-PSMA-I&T was assessed in LNCaP xenografted mice, firstly injected with 1.3 μmol (300 μg) of 2-Phosphonomethyl pentanedioic acid (2-PMPA) as the blocking agent, followed by the injection of the radiotracer e.g. [^61Cu]Cu-DOTAGA-PSMA-I&T (100 μL/[…]/4-8 MBq) or [^61Cu]Cu-NODAGA-PSMA-I&T (100 μL/[…]/4-8 MBq). One-hour post injection PET/CT images were acquired as described in Example 8. In addition, PET/CT image of xenografts after injection of [^61Cu]CuCl2 (100 μL/7 MBq) was acquired in order to assess the total body distribution of free (uncomplexed)^61Cu. The results are shown in FIG. 10, panels A and B. L=liver; K=kidneys; T=tumor; Bl=bladder; I=intestine.

[7] = test system: HEK-SST2 xenografts; assay: PET/CT imaging in HEK-SST2 xenografted mice; assay type: in vivo; conditions: 0-60 min and 240 min
Description: as §1

[8] = in vivo; conditions: iv, 20 umol, total radioactivity
Description: The tumors were allowed to grow for 1-3 weeks before commencement of the experiments.
as §2
The mice were randomly distributed in groups, injected with the radiotracer under investigation and euthanized at 1 and at 4 hours post-injection of the radiotracers under investigation. The organs of interest were collected, rinsed, blotted, weighed and counted in a gamma counter. The results are expressed as percentage of injected activity per gram (% IA/g), representing the mean±standard deviation of all mice per group and they were obtained by extrapolation from counts of an aliquot taken from the injected solution as standard.
The mice were randomly distributed in groups and euthanized at 4 hours post-injection. The organs of interest were collected, rinsed, blotted, weighed, and their respective radioactivity was counted in a gamma counter.

T1 sequence (Q04609 whole entry): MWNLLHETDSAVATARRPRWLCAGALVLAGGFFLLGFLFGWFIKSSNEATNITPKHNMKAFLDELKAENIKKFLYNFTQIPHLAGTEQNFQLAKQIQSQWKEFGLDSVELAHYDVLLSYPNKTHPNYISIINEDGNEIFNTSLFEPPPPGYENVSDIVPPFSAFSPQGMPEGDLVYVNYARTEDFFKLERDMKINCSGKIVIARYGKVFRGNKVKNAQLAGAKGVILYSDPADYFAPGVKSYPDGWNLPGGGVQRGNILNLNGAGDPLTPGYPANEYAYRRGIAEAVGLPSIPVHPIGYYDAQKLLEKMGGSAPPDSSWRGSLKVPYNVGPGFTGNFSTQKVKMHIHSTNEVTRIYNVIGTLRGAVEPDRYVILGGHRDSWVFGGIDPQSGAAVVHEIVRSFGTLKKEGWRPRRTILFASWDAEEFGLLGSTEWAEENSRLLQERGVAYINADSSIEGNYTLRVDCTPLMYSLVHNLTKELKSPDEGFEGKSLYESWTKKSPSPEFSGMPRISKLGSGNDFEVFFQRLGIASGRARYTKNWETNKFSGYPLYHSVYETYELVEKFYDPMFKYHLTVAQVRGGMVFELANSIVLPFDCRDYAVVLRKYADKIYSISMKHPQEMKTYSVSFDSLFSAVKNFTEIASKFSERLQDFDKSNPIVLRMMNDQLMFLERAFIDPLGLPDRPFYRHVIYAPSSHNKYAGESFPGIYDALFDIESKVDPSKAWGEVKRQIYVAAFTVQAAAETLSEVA

IC50 [1]: 9.3 ± 1.8 nM
Structure (SMILES): O=C([O-])CN1CCN(CC(=O)[O-])CCN([C@H](CCC(=O)N[C@H](Cc2ccc(O)c(I)c2)C(=O)N[C@H](Cc2ccccc2)C(=O)N[C@H](CCCCNC(=O)CCCCCCC(=O)NCCCC[C@H](NC(=O)N[C@@H](CCC(=O)O)C(=O)O)C(=O)O)C(=O)O)C(=O)O)CC1.[Cu+2] [^natCu-NODAGA-PSMA-I&T]

log D(O/PBS pH 7.4) [4]: −2.69±0.44
Biodistribution Adrenal ([5]; 1 hour p.i.): 9.35 ± 1.50 % IA/g
Biodistribution Blood ([5]; 1 hour p.i.): 2.06 ± 0.24 % IA/g
Biodistribution Bone ([5]; 1 hour p.i.): 2.31 ± 0.36 % IA/g
Biodistribution Heart ([5]; 1 hour p.i.): 3.73 ± 0.32 % IA/g
Biodistribution Intestine ([5]; 1 hour p.i.): 8.95 ± 0.62 % IA/g
Biodistribution Kidneys ([5]; 1 hour p.i.): 57 ± 6 % IA/g
Biodistribution LNCaP-tumor ([5]; 1 hour p.i.): 6.06 ± 0.25 % IA/g
Biodistribution Liver ([5]; 1 hour p.i.): 19.3 ± 3.3 % IA/g
Biodistribution Lung ([5]; 1 hour p.i.): 6.35 ± 0.35 % IA/g
Biodistribution Muscle ([5]; 1 hour p.i.): 1.00 ± 0.05 % IA/g
Biodistribution Pancreas ([5]; 1 hour p.i.): 2.82 ± 0.67 % IA/g
Biodistribution Salivary glands ([5]; 1 hour p.i.): 5.60 ± 1.39 % IA/g
Biodistribution Spleen ([5]; 1 hour p.i.): 4.64 ± 1.35 % IA/g
Biodistribution Stomach ([5]; 1 hour p.i.): 7.77 ± 0.62 % IA/g
Ratio Tumor/Blood ([5]; 1 hour p.i.): 2.97 ± 0.23
Ratio Tumor/Kidney ([5]; 1 hour p.i.): 0.11 ± 0.01
Ratio Tumor/Liver ([5]; 1 hour p.i.): 0.32 ± 0.05
Ratio Tumor/Muscles ([5]; 1 hour p.i.): 6.08 ± 0.22
Biodistribution Adrenal ([5]; 4 hours p.i.): 6.46 ± 2.38 % IA/g
Biodistribution Blood ([5]; 4 hours p.i.): 1.12 ± 0.24 % IA/g
Biodistribution Bone ([5]; 4 hours p.i.): 1.69 ± 0.25 % IA/g
Biodistribution Heart ([5]; 4 hours p.i.): 2.08 ± 0.33 % IA/g
Biodistribution Intestine ([5]; 4 hours p.i.): 7.74 ± 1.76 % IA/g
Biodistribution Kidneys ([5]; 4 hours p.i.): 22.1 ± 2.2 % IA/g
Biodistribution LNCaP-tumor ([5]; 4 hours p.i.): 4.88 ± 0.63 % IA/g
Biodistribution Liver ([5]; 4 hours p.i.): 13.9 ± 2.2 % IA/g
Biodistribution Lung ([5]; 4 hours p.i.): 4.67 ± 0.76 % IA/g
Biodistribution Muscle ([5]; 4 hours p.i.): 0.48 ± 0.08 % IA/g
Biodistribution Pancreas ([5]; 4 hours p.i.): 1.71 ± 0.23 % IA/g
Biodistribution Salivary glands ([5]; 4 hours p.i.): 2.31 ± 0.19 % IA/g
Biodistribution Spleen ([5]; 4 hours p.i.): 2.95 ± 0.73 % IA/g
Biodistribution Stomach ([5]; 4 hours p.i.): 7.10 ± 0.97 % IA/g
Ratio Tumor/Blood ([5]; 4 hours p.i.): 4.56 ± 1.49
Ratio Tumor/Kidney ([5]; 4 hours p.i.): 0.22 ± 0.04
Ratio Tumor/Liver ([5]; 4 hours p.i.): 0.35 ± 0.05
Ratio Tumor/Muscles ([5]; 4 hours p.i.): 10.5 ± 2.8
uptake in PSMA-positive tumors and kidneys in xenografts pre-injected with 2-PMPA [6]: significantly lower uptake
Structure (SMILES): O=C([O-])CN1CCN(CC(=O)[O-])CCN(C(CCC(=O)N[C@H](Cc2ccc(O)c(I)c2)C(=O)N[C@H](Cc2ccccc2)C(=O)N[C@H](CCCCNC(=O)CCCCCCC(=O)NCCCC[C@H](NC(=O)N[C@@H](CCC(=O)O)C(=O)O)C(=O)O)C(=O)O)C(=O)O)CCN(CC(=O)O)CC1.[61Cu+2] (stereo partly drawn) [[^61Cu]Cu-DOTAGA-PSMA-I&T]
distribution on PET/CT images [2]: lower tumor, but also lower kidney uptake
Cell surface fraction ([3]; 5 min): 3.7 ± 0.5 % of the applied activity
Internalized fraction ([3]; 5 min): 0.7 ± 0.1 % of the applied activity
Cell surface fraction ([3]; 15 min): 8.1 ± 0.7 % of the applied activity
Internalized fraction ([3]; 15 min): 2.8 ± 0.2 % of the applied activity
Cell surface fraction ([3]; 30 min): 11.6 ± 1.0 % of the applied activity
Internalized fraction ([3]; 30 min): 6.2 ± 0.5 % of the applied activity
Cell surface fraction ([3]; 60 min): 13.4 ± 0.8 % of the applied activity
Internalized fraction ([3]; 60 min): 13.3 ± 0.5 % of the applied activity
Cell surface fraction ([3]; 120 min): 14.7 ± 1.0 % of the applied activity
Internalized fraction ([3]; 120 min): 21.3 ± 0.9 % of the applied activity
PSMA-mediated cellular uptake ([3]; after 2h at 37° C.): approx. 35%
part of the cellular uptake being internalized ([3]; after 2h at 37° C.): 50-60%
accumulation in tumor and target-positive tissues [5]: high accumulation in PSMA-positive (LNCaP) tumor and PSMA-positive tissues

IC50 [1]: 11.2 ± 2.3 nM
Structure (SMILES): O=C([O-])CN1CCN(CC(=O)[O-])CCN(C(CCC(=O)N[C@H](Cc2ccc(O)c(I)c2)C(=O)N[C@H](Cc2ccccc2)C(=O)N[C@H](CCCCNC(=O)CCCCCCC(=O)NCCCC[C@H](NC(=O)N[C@@H](CCC(=O)O)C(=O)O)C(=O)O)C(=O)O)C(=O)O)CCN(CC(=O)O)CC1.[Cu+2] (stereo partly drawn) [^natCu-DOTAGA-PSMA-I&T, reference compound]

distribution pattern on PET/CT [7]: same distribution pattern
tissue uptake at 4 h ([8]; athymic nude Foxn1+Foxn1+, mouse, Biodistribution Adrenal): 0.61 ± 0.18 %ID/g
tissue uptake at 4 h ([8]; athymic nude Foxn1+Foxn1+, mouse, Biodistribution Blood): 0.1 ± 0.01 %ID/g
tissue uptake at 4 h ([8]; athymic nude Foxn1+Foxn1+, mouse, Biodistribution Heart): 0.17 ± 0.02 %ID/g
tissue uptake at 4 h ([8]; athymic nude Foxn1+Foxn1+, mouse, Biodistribution Intestine): 0.58 ± 0.13 %ID/g
tissue uptake at 4 h ([8]; athymic nude Foxn1+Foxn1+, mouse, Biodistribution Liver): 0.73 ± 0.06 %ID/g
tissue uptake at 4 h ([8]; athymic nude Foxn1+Foxn1+, mouse, Biodistribution Lung): 0.42 ± 0.05 %ID/g
tissue uptake at 4 h ([8]; athymic nude Foxn1+Foxn1+, mouse, Biodistribution Pancreas): 0.44 ± 0.24 %ID/g
tissue uptake at 4 h ([8]; athymic nude Foxn1+Foxn1+, mouse, Biodistribution Spleen): 0.17 ± 0.02 %ID/g
tissue uptake at 4 h ([8]; athymic nude Foxn1+Foxn1+, mouse, Biodistribution Stomach): 0.78 ± 0.14 %ID/g
tissue uptake at 4 h ([8]; athymic nude Foxn1, mouse, Biodistribution Bone): 0.42 ± 0.12 %ID/g
tissue uptake at 4 h ([8]; athymic nude Foxn1, mouse, Biodistribution Kidneys): 3.87 ± 0.51 %ID/g
tissue uptake at 4 h ([8]; athymic nude Foxn1, mouse, Biodistribution Muscle): 0.1 ± 0.02 %ID/g
tissue uptake at 4 h ([8]; athymic nude Foxn1, mouse, Biodistribution Pituitary): 3.64 ± 0.31 %ID/g
tissue uptake at 4 h ([8]; athymic nude Foxn1, mouse, Biodistribution SSTR2-tumor): 19 ± 2.11 %ID/g
Structure (SMILES): C[C@@H](O)[C@@H]1NC(=O)[C@H](CCCCN)NC(=O)[C@@H](Cc2ccc(NC(N)=O)cc2)NC(=O)[C@H](Cc2ccc(O)cc2)NC(=O)[C@H](NC(=O)[C@H](Cc2ccc(Cl)cc2)NC(=O)CC[C@H](C(=O)O)N2CCN(CC(=O)O)CCN(CC(=O)O)CC2)CSSC[C@@H](C(=O)N[C@H](Cc2ccc(O)cc2)C(N)=O)NC1=O [[^61Cu]Cu-(R)-NODAGA-LM3, metal not drawn]
